Data: patent US9556179B2 (BRISTOL-MYERS SQUIBB COMPANY, priority 2012, dated 2017)

Columns and labels:
[1] = biological target: CK1δ (Homo sapiens (Human), UniProt P48730); assay: CK1δ kinase assay (Caliper LABCHIP electrophoretic separation of fluoresceinated peptide substrate and product); type: biochemical; conditions: 200 pM enzyme, 50 μM ATP, 22 hours at room temperature
Outline: (§1)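 Compounds, taken from 10 mM DMSO stocks, are titrated at eleven concentrations. Kinase reactions proceed for 22 hours at room temperature and are quenched with EDTA. Substrate and product are resolved electrophoretically, and IC50 values are fitted by non-linear regression.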

[2] = biological target: CK1ε (Homo sapiens (Human), UniProt P49674); assay: CK1ε kinase assay (Caliper LABCHIP electrophoretic separation of fluoresceinated peptide substrate and product); type: biochemical; conditions: 200 pM enzyme, 50 μM ATP, 22 hours at room temperature
Sequence of CK1ε (P49674 whole entry): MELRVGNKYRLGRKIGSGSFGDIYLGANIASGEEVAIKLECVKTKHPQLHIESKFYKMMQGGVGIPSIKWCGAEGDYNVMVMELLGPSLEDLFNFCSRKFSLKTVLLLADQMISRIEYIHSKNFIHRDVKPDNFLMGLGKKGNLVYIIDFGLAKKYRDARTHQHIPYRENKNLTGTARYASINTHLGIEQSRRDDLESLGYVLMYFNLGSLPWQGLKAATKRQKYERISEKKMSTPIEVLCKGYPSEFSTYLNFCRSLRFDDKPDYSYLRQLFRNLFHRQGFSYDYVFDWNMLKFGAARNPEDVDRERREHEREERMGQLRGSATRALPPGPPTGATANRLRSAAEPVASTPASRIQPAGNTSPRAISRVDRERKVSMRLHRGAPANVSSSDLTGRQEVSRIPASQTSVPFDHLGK
Outline: as §1

[3] = tested on: pancreatic tumor cell; conditions: in vitro and in vivo; Brockschmidt et al., Gut 2008; cited from earlier work

Sequence of CK1δ (P48730 whole entry): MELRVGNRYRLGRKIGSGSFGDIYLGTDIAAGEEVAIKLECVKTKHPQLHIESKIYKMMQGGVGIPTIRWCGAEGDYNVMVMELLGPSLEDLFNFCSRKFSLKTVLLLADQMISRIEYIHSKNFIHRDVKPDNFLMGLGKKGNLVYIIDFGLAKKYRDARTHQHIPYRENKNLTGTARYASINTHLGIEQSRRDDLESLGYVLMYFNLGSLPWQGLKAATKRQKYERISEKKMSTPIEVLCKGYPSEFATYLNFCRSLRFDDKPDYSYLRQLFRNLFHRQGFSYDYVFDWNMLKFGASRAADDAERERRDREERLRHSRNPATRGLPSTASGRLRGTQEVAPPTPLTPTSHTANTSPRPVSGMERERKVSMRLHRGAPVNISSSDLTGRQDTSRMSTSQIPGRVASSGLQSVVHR

IC50 [1] | IC50 [2] | Structure (SMILES) | pancreatic tumor cell growth [3]
1 nM | 9.3 nM | COC(=O)N1CCn2c(nc(-c3ccc(F)cc3)c2-c2ccc3nc(NC(=O)c4ccnc(F)c4)cn3n2)C1 [Compound 474, Methyl 3-(2-(2-fluoroisonicotinamido)imidazo[1,2-b]pyridazin-6-yl)-2-(4-fluorophenyl)-5,6-dihydroimidazo[1,2-a]pyrazine-7(8H)-carboxylate] | –
0.3 nM | 2.5 nM | CS(=O)(=O)N1CCn2c(nc(-c3ccc(F)cc3)c2-c2ccc3nc(NC(=O)c4ccnc(F)c4)cn3n2)C1 [Compound 476, 2-Fluoro-N-(6-(2-(4-fluorophenyl)-7-(methylsulfonyl)-5,6,7,8-tetrahydroimidazo[1,2-a]pyrazin-3-yl)imidazo[1,2-b]pyridazin-2-yl)isonicotinamide] | –
0.4 nM | 2.3 nM | O=C(Nc1cn2nc(-c3c(-c4ccc(F)cc4)nc4n3CCN(CCC(F)(F)F)C4)ccc2n1)c1ccnc(F)c1 [Compound 478, 2-Fluoro-N-(6-(2-(4-fluorophenyl)-7-(3,3,3-trifluoropropyl)-5,6,7,8-tetrahydroimidazo[1,2-a]pyrazin-3-yl)imidazo[1,2-b]pyridazin-2-yl)isonicotinamide] | –
0.6 nM | 5.4 nM | CC(C)(C)NC(=O)N1CCn2c(nc(-c3ccc(F)cc3)c2-c2ccc3nc(NC(=O)c4ccnc(F)c4)cn3n2)C1 [Compound 481, N-(tert-Butyl)-3-(2-(2-fluoroisonicotinamido)imidazo[1,2-b]pyridazin-6-yl)-2-(4-fluorophenyl)-5,6-dihydroimidazo[1,2-a]pyrazine-7(8H)-carboxamide] | –
1.1 nM | 11.9 nM | CC(C)NC(=O)N1CCn2c(nc(-c3ccc(F)cc3)c2-c2ccc3nc(NC(=O)c4ccnc(F)c4)cn3n2)C1 [Compound 482, 3-(2-(2-Fluoroisonicotinamido)imidazo[1,2-b]pyridazin-6-yl)-2-(4-fluorophenyl)-N-isopropyl-5,6-dihydroimidazo[1,2-a]pyrazine-7(8H)-carboxamide] | –
0.4 nM | 3.9 nM | O=C(Nc1cn2nc(-c3c(-c4ccc(F)cc4)nc4n3CCN(C(=O)NC3CC3)C4)ccc2n1)c1ccnc(F)c1 [Compound 483, N-Cyclopropyl-3-(2-(2-fluoroisonicotinamido)imidazo[1,2-b]pyridazin-6-yl)-2-(4-fluorophenyl)-5,6-dihydroimidazo[1,2-a]pyrazine-7(8H)-carboxamide] | –
0.6 nM | 6.7 nM | CC(C)(NC(=O)N1CCn2c(nc(-c3ccc(F)cc3)c2-c2ccc3nc(NC(=O)c4ccnc(F)c4)cn3n2)C1)C(F)(F)F [Compound 484, 3-(2-(2-Fluoroisonicotinamido)imidazo[1,2-b]pyridazin-6-yl)-2-(4-fluorophenyl)-N-(1,1,1-trifluoro-2-methylpropan-2-yl)-5,6-dihydroimidazo[1,2-a]pyrazine-7(8H)-carboxamide] | –
0.5 nM | 4.5 nM | CC1(NC(=O)N2CCn3c(nc(-c4ccc(F)cc4)c3-c3ccc4nc(NC(=O)c5ccnc(F)c5)cn4n3)C2)CC1 [Compound 485, 3-(2-(2-Fluoroisonicotinamido)imidazo[1,2-b]pyridazin-6-yl)-2-(4-fluorophenyl)-N-(1-methylcyclopropyl)-5,6-dihydroimidazo[1,2-a]pyrazine-7(8H)-carboxamide] | –
0.7 nM | 6.4 nM | O=C(Nc1cn2nc(-c3c(-c4ccc(F)cc4)nc4n3CCN(C(=O)NCCC(F)(F)F)C4)ccc2n1)c1ccnc(F)c1 [Compound 486, 3-(2-(2-Fluoroisonicotinamido)imidazo[1,2-b]pyridazin-6-yl)-2-(4-fluorophenyl)-N-(3,3,3-trifluoropropyl)-5,6-dihydroimidazo[1,2-a]pyrazine-7(8H)-carboxamide] | –
0.7 nM | 8.1 nM | CC(C)OC(=O)N1CCn2c(nc(-c3ccc(F)cc3)c2-c2ccc3nc(NC(=O)c4ccnc(F)c4)cn3n2)C1 [Example 475] | –
– | – | COc1cc(OC)c(C=C2C(O)=Nc3ccccc32)c(OC)c1 [IC261] | reduces pancreatic tumor cell growth in vitro and in vivo
